pIC50: −log10 of the molar value.
target: T1, human LPA1 (Homo sapiens, UniProt Q92633); assay: LPA1 functional antagonist assay (calcium flux); type: cell-based; conditions: CHO cells overexpressing human LPA1; calcium flux induced by 10 nM LPA; read-out: hLPA1 IC50
T1 construct: expressed in transfected cells; host or cells: Chinese hamster ovary (CHO) cells
Procedure: The effectiveness of compounds of the present invention as LPA1 inhibitors can be determined in an LPA1 functional antagonist assay as follows:
The cells were then equilibrated to room temperature for 30 minutes before the assay. […] IC50 values were determined by fitting data to a 4-parameter logistic equation (GraphPad Prism, San Diego Calif.).

T1 sequence (Q92633 whole entry): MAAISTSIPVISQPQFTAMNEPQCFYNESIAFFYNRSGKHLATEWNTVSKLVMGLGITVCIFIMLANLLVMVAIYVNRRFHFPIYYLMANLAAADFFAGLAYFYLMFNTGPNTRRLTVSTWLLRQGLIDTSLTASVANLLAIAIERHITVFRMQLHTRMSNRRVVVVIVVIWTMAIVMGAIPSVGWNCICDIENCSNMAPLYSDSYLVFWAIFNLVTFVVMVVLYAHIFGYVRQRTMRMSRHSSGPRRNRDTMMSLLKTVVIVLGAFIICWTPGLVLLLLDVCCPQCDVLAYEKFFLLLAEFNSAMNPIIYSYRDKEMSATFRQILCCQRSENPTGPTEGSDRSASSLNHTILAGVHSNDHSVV

Row | SMILES | pIC50
1 | CCCCOC(=O)NCc1c(-c2ccc(O[C@H]3CCC[C@H](C(=O)O)C3)c(C)n2)nnn1C [Example 3, (1S,3S)-3-((6-(5-(((butoxycarbonyl)amino)methyl)-1-methyl-1H-1,2,3-triazol-4-yl)-2-methylpyridin-3-yl)oxy)cyclohexane-1-carboxylic acid] | 7.85
2 | CCCCOC(=O)NCc1c(-c2ccc(O[C@H]3CCC[C@H](C(=O)O)C3)cn2)nnn1C [Example 5, (1S,3S)-3-((6-(5-(((butoxycarbonyl)amino)methyl)-1-methyl-1H-1,2,3-triazol-4-yl)pyridin-3-yl)oxy)cyclohexane-1-carboxylic acid] | 7.02
3 | CCCCCCOC(=O)NCc1c(-c2ccc(O[C@H]3CCC[C@H](C(=O)O)C3)cn2)nnn1C [Example 13, (1S,3S)-3-((6-(5-((((hexyloxy)carbonyl)amino)methyl)-1-methyl-1H-1,2,3-triazol-4-yl)pyridin-3-yl)oxy)cyclohexane-1-carboxylic acid] | 6.37
4 | CCCCOC(=O)N(C)Cc1c(-c2ccc(O[C@H]3CCC[C@H](C(=O)O)C3)cn2)nnn1C [Example 14, (1S,3S)-3-((6-(5-(((butoxycarbonyl)(methyl)amino)methyl)-1-methyl-1H-1,2,3-triazol-4-yl)pyridin-3-yl)oxy)cyclohexane-1-carboxylic acid] | 5.99
5 | CCCCCOC(=O)N(C)Cc1c(-c2ccc(O[C@H]3CCC[C@H](C(=O)O)C3)cn2)nnn1C [Example 15, (1S,3S)-3-((6-(1-methyl-5-((methyl((pentyloxy)carbonyl)amino)methyl)-1H-1,2,3-triazol-4-yl)pyridin-3-yl)oxy)cyclohexane-1-carboxylic acid] | 6.89
6 | Cc1cccc(COC(=O)NCc2c(-c3ccc(O[C@H]4CCC[C@H](C(=O)O)C4)c(C)n3)nnn2C)c1 [Example 19, (1S,3S)-3-((2-methyl-6-(1-methyl-5-(((((3-methylbenzyl)oxy)carbonyl)amino)methyl)-1H-1,2,3-triazol-4-yl)pyridin-3-yl)oxy)cyclohexane-1-carboxylic acid] | 8.40
7 | CCCCCCOC(=O)NCc1c(-c2ccc(O[C@H]3CCC[C@H](C(=O)O)C3)c(C)n2)nnn1C [Example 20, (1S,3S)-3-((6-(5-((((hexyloxy)carbonyl)amino)methyl)-1-methyl-1H-1,2,3-triazol-4-yl)-2-methyl-pyridin-3-yl)oxy)cyclohexane-1-carboxylic acid] | 8.52
8 | COCCOC(=O)NCc1c(-c2ccc(O[C@H]3CCC[C@H](C(=O)O)C3)c(C)n2)nnn1C [Example 21, (1S,3S)-3-((6-(5-((((2-methoxyethoxy)carbonyl)amino)methyl)-1-methyl-1H-1,2,3-triazol-4-yl)-2-methylpyridin-3-yl)oxy)cyclohexane-1-carboxylic acid] | 5.79
9 | Cc1nc(-c2nnn(C)c2CNC(=O)OCC(C)C)ccc1O[C@H]1CCC[C@H](C(=O)O)C1 [Example 25, (1S,3S)-3-((6-(5-(((isobutoxycarbonyl)amino)methyl)-1-methyl-1H-1,2,3-triazol-4-yl)-2-methyl-pyridin-3-yl)oxy)cyclohexane-1-carboxylic acid] | 7.29
10 | CC(C)COC(=O)NCc1c(-c2ccc(O[C@H]3CCC[C@H](C(=O)O)C3)cn2)nnn1C [Example 29, (1S,3S)-3-((6-(5-(((isobutoxycarbonyl)amino)methyl)-1-methyl-1H-1,2,3-triazol-4-yl)pyridin-3-yl)oxy)cyclohexane-1-carboxylic acid] | 6.75
11 | Cc1nc(-c2nnn(C)c2CNC(=O)OC(C)(C)C)ccc1O[C@H]1CCC[C@H](C(=O)O)C1 [Example 30, (1S,3S)-3-((6-(5-(((tert-butoxycarbonyl)amino)methyl)-1-methyl-1H-1,2,3-triazol-4-yl)-2-methylpyridin-3-yl)oxy)cyclohexane-1-carboxylic acid] | 6.92
12 | Cc1nc(-c2nnn(C)c2CN(C)C(=O)OCc2ccccc2)ccc1O[C@H]1CCC[C@H](C(=O)O)C1 [Example 35, (1S,3S)-3-((6-(5-((((benzyloxy)carbonyl)(methyl)amino)methyl)-1-methyl-1H-1,2,3-triazol-4-yl)-2-methylpyridin-3-yl)oxy)cyclohexanecarboxylic acid] | 7.25

More lines, in order of rising pIC50, values ahead:

Row | pIC50 | SMILES
13 | 6.17 | Cn1nnc(-c2ccc(O[C@H]3CCC[C@H](C(=O)O)C3)cn2)c1CNC(=O)OCCc1ccccc1 [Example 9, (1S,3S)-3-((6-(1-methyl-5-(((phenethoxycarbonyl)amino)methyl)-1H-1,2,3-triazol-4-yl)pyridin-3-yl)oxy)cyclohexane-1-carboxylic acid]
14 | 6.80 | CCCOC(=O)NCc1c(-c2ccc(O[C@H]3CCC[C@H](C(=O)O)C3)c(C)n2)nnn1C [Example 24, (1S,3S)-3-((2-methyl-6-(1-methyl-5-(((propoxycarbonyl)amino)methyl)-1H-1,2,3-triazol-4-yl)pyridin-3-yl)oxy)cyclohexane-1-carboxylic acid]
15 | 6.98 | C[C@@H](OC(=O)NCc1c(-c2ccc(O[C@H]3CCC[C@H](C(=O)O)C3)cn2)nnn1C)c1ccccc1 [Example 10, (1S,3S)-3-((6-(1-methyl-5-(((((R)-1-phenylethoxy)carbonyl)amino)methyl)-1H-1,2,3-triazol-4-yl)pyridin-3-yl)oxy)cyclohexane-1-carboxylic acid]
16 | 7.08 | Cn1nnc(-c2ccc(O[C@H]3CCC[C@H](C(=O)O)C3)cn2)c1CNC(=O)OC1CCCC1 [Example 6, (1S,3S)-3-((6-(5-((((cyclopentyloxy)carbonyl)amino)methyl)-1-methyl-1H-1,2,3-triazol-4-yl)pyridin-3-yl)oxy)cyclohexane-1-carboxylic acid]
17 | 7.33 | Cc1nc(-c2nnn(C)c2CNC(=O)OCC2CC2)ccc1O[C@H]1CCC[C@H](C(=O)O)C1 [Example 7, (1S,3S)-3-((6-(5-((((cyclopropylmethoxy)carbonyl)amino)methyl)-1-methyl-1H-1,2,3-triazol-4-yl)-2-methylpyridin-3-yl)oxy)cyclohexane-1-carboxylic acid]
18 | 7.36 | Cn1nnc(-c2ccc(O[C@H]3CCC[C@H](C(=O)O)C3)cn2)c1CNC(=O)OCC(C)(C)C [Example 26, (1S,3S)-3-((6-(1-methyl-5-((((neopentyloxy)carbonyl)amino)methyl)-1H-1,2,3-triazol-4-yl)pyridin-3-yl)oxy)cyclohexane-1-carboxylic acid]
19 | 7.46 | Cc1nc(-c2nnn(C)c2CNC(=O)OCC(C)(C)C)ccc1O[C@H]1CCC[C@H](C(=O)O)C1 [Example 22, (1S,3S)-3-((2-methyl-6-(1-methyl-5-((((neopentyloxy)carbonyl)amino)methyl)-1H-1,2,3-triazol-4-yl)pyridin-3-yl)oxy)cyclohexane-1-carboxylic acid]
20 | 7.49 | Cc1nc(-c2nnn(C)c2CNC(=O)OCCc2ccccc2)ccc1O[C@H]1CCC[C@H](C(=O)O)C1 [Example 16, (1S,3S)-3-((2-methyl-6-(1-methyl-5-(((phenethoxycarbonyl)amino)methyl)-1H-1,2,3-triazol-4-yl)pyridin-3-yl)oxy)cyclohexane-1-carboxylic acid]
21 | 7.64 | Cn1nnc(-c2ccc(O[C@H]3CCC[C@H](C(=O)O)C3)cn2)c1CNC(=O)OCc1cccc(F)c1 [Example 12, (1S,3S)-3-((6-(5-(((((3-fluorobenzyl)oxy)carbonyl)amino)methyl)-1-methyl-1H-1,2,3-triazol-4-yl)pyridin-3-yl)oxy)cyclohexane-1-carboxylic acid]
22 | 7.74 | Cc1nc(-c2nnn(C)c2CNC(=O)OC2CCCC2)ccc1O[C@H]1CCC[C@H](C(=O)O)C1 [Example 28]
23 | 7.80 | CCCCCOC(=O)NCc1c(-c2ccc(O[C@H]3CCC[C@H](C(=O)O)C3)cn2)nnn1C [Example 27, (1S,3S)-3-((6-(1-methyl-5-((((pentyloxy)carbonyl)amino)methyl)-1H-1,2,3-triazol-4-yl)pyridin-3-yl)oxy)cyclohexane-1-carboxylic acid]
24 | 7.92 | Cc1nc(-c2nnn(C)c2CNC(=O)O[C@H](C)c2ccccc2)ccc1O[C@H]1CCC[C@H](C(=O)O)C1 [Example 18, (1S,3S)-3-((2-methyl-6-(1-methyl-5-(((((R)-1-phenylethoxy)carbonyl)amino)methyl)-1H-1,2,3-triazol-4-yl)pyridin-3-yl)oxy)cyclohexane-1-carboxylic acid]
25 | 7.96 | Cc1nc(-c2nnn(C)c2CNC(=O)OCC2CCC2)ccc1O[C@H]1CCC[C@H](C(=O)O)C1 [Example 33, (1S,3S)-3-((6-(5-((((cyclobutylmethoxy)carbonyl)amino)methyl)-1-methyl-1H-1,2,3-triazol-4-yl)-2-methylpyridin-3-yl)oxy)cyclohexane-1-carboxylic acid]
26 | 8.15 | Cc1nc(-c2nnn(C)c2CNC(=O)OCc2cc(F)ccc2F)ccc1O[C@H]1CCC[C@H](C(=O)O)C1 [Example 17, (1S,3S)-3-((6-(5-(((((2,5-difluorobenzyl)oxy)carbonyl)amino)methyl)-1-methyl-1H-1,2,3-triazol-4-yl)-2-methylpyridin-3-yl)oxy)cyclohexane-1-carboxylic acid]
27 | 8.22 | Cc1nc(-c2nnn(C)c2CNC(=O)OCc2cccc(F)c2)ccc1O[C@H]1CCC[C@H](C(=O)O)C1 [Example 11, (1S,3S)-3-((6-(5-(((((3-fluorobenzyl)oxy)carbonyl)amino)methyl)-1-methyl-1H-1,2,3-triazol-4-yl)-2-methylpyridin-3-yl)oxy)cyclohexane-1-carboxylic acid]
28 | 8.30 | Cc1nc(-c2nnn(C)c2CNC(=O)OCc2cc(F)cc(F)c2)ccc1O[C@H]1CCC[C@H](C(=O)O)C1 [Example 8, (1S,3S)-3-((6-(5-(((((3,5-difluorobenzyl)oxy)carbonyl)amino)methyl)-1-methyl-1H-1,2,3-triazol-4-yl)-2-methylpyridin-3-yl)oxy)cyclohexane-1-carboxylic acid]
29 | 8.52 | CCCCCOC(=O)NCc1c(-c2ccc(O[C@H]3CCC[C@H](C(=O)O)C3)c(C)n2)nnn1C [Example 23]

Reference: US11697646B2, “Triazole N-linked carbamoyl cyclohexyl acids as LPA antagonists” (BRISTOL-MYERS SQUIBB COMPANY, priority 2017, dated 2023)
